Data published in ChEMBL document CHEMBL1129091, “Synthesis and biological evaluation of a bicyclo [7.4.1]enediyne” (Bioorg Med Chem Lett, 1996).
≈ marks a conversion by molar mass, not a printed value.

Tested on: HCT-116
Assay: In vitro cytotoxicity against human colon carcinoma cells (HCT116)
Assay type: functional, cell-based

With `CC1(C)C2=CC(=O)CC[C@@]1(O)C#C/C=C\C#C[C@H]2O` the IC50 was 18 µg/mL (≈ 70.2 µM).
